This is an account of results in patent EP0642343B1, “Acridine carboxamides for the treatment of cancer” (XENOVA LIMITED, priority 1992, dated 1993).

Like-named read-outs stand apart in the source and are kept apart here.

For one series, the system named is B1D. The experiment in a line: Resistance factor, drug-resistant Jurkat leukaemia subline. Particulars: B1D (from B1 by exposure to doxorubicin); ratio of IC50 resistant line / parent line. It counts as cell-based, human. The method, then: (§1) Tumour cell lines were cultured in 96-well plates. Growth of NCI cell lines was assessed using sulpho-rhodamine B staining (Skehan P., et al., J. Natl. Cancer Inst. 1990, 82, 1107-1112), that of the leukaemia lines with (4,5-dimethylthiazole-2-yl)-2,5-diphenyltetrazolium (MTT) staining (Mosmann T., J. Immun. Methods 1983, 65, 55-63) and that of the primary human tumour material by ^3H-thymidine incorporation (Marshall E.S., et al., J. Natl. Cancer Inst. 1992, 84, 341-344). Primary tumour material was cultured in 96-well plates in which the wells were coated with agarose to inhibit selectively the growth of normal cells. (Marshall E.S., et al., J. Natl. Cancer Inst. 1992, 84, 341-344). Primary cultures were incubated at 37°C in sealed perspex boxes containing a humidified atmosphere of 5% CO2 and 5% O2 in nitrogen for 7 days. 5-Methyl-[^3H]-thymidine (20 Ci.mmol^-1; 0.04 µCi per well), thymidine and 5-fluorodeoxyuridine (each at final concentrations of 0.5 µM) were added in medium to cultures (20 µl per well) 24 h before terminating the cultures. Cells were aspirated on to glass fibre filters using a multiple automated sample harvester (LKB Wallac OY Beta Harvester). The filter discs were washed for 15 seconds with water, dried, and the amount of tritium retained quantified by liquid scintillation.
(§2) IC50 values were defined as in Paull K.D., et al., J. Natl. Cancer Inst. 1989, 81:1088-1092, where growth, as indicated by staining or thymidine incorporation, corresponded to 50% of that of the control cultures. […] Variances of DELTA values were expressed as standard deviations in log10 units. Comparison of DELTA values was made using Pearson correlation coefficients. Resistance factors were defined as the ratios of IC50 values between the resistant line and the parent line. Statistical evaluation was performed either with NCI programmes, with RS/1 software (BBN Research Systems, Cambridge, MA, USA), or with Sigmaplot (Jandel Scientific, San Rafael, CA, USA).
(§3) The effect of DACA on the growth of cultured cells was assessed by continuous drug exposure. […] Four multidrug-resistant cell lines, developed from JL and JB1 by in vitro exposure to increasing concentrations of doxorubicin (LD and B1D) or amsacrine (LA and B1A) (Finlay G.J., et al., J. Natl. Cancer Inst. 1990, 82, 662-667, Snow K., et al., Br. J. Cancer 1991, 63, 17-28) were tested.
(§4) DACA was compared with six other drugs including four topo II poisons, doxorubicin, mitozantrone, etopo-side and amsacrine. […]

The subject of a further series is B1A. Described as above. It counts as cell-based, human. Particulars: B1A (from B1 by exposure to amsacrine); ratio of IC50 resistant line / parent line. The method, then:
as §1, §2, §3, §4

In the next series the test system is LA. Described as above. The class given is cell-based, human. Particulars: LA (from L by exposure to amsacrine); ratio of IC50 resistant line / parent line. The protocol:
as §1, §2, §3, §4

Another series has as its system LD. The description is as above. The class given is cell-based, human. Particulars: LD (from L by exposure to doxorubicin); ratio of IC50 resistant line / parent line. The protocol:
as §1, §2, §3, §4

In series [1] the test system is primary human melanoma cultures. The experiment in a line: cells. The settings on record: for IC50: Homo sapiens. The method, then:
Acridine carboxamide hydrochloride, synthesised in the Cancer Research Laboratory (Atwell G.J., et al., J.Med. Chem. 1987, 30, 664-669), and amsacrine isethionate, obtained from the Parke-Davis Division of the Warner-Lambert Company, Ann Arbor, USA, were dissolved in 50% v/v aqueous ethanol to make stock solutions of 2-5 mmol/l and stored at -20°C. Other cytotoxic drugs were available either from the NCI repository (Monks A., et al., J. Natl. Cancer Inst. 1991, 83, 757-766) or were obtained as described in Marshall E.S., et al., J. Natl. Cancer Inst. 1992, 84, 341-344 and Finlay, et al., Eur. J. Cancer din. Oncol. 1986, 22, 655-662. Cell lines were from the NCI repository except for MM-96 (Dr. R. Whitehead, Ludwig Institute, Melbourne, Australia), FME (Dr. K.M. Tveit, Norwegian Radium Hospital, Oslo, Norway) and Jurkat normal and multidrug-resistant lines (Dr. K. Snow and Dr. W. Judd, Department of Cellular and Molecular Biology, University of Auckland). Melanoma tissue was obtained from patients with pathologically confirmed metastatic and recurrent melanomas under Auckland Hospital Ethical Committee guidelines. Cells were released by digestion of tissue (at 50 mg.ml^-1) with collagenase (1 mg.ml^-1) and DNAase (50 µg.ml^-1) with continuous stirring at 37°C for 1 to 2 hours, and cultured as previously described (Marshall E.S., et al., J. Natl. Cancer Inst. 1992, 84, 341-344).
as §1, §2
DACA was also compared in a series of 12 primary melanoma cultures. Tissue was excised from human malignant melanomas and cultured using a modified 96-well assay system in which the cells were cultured on agarose and assayed for proliferation using the ^3H-thymidine incorporation assay as described in Marshall E.S., et al., J. Natl. Cancer Inst. 1992, 84, 341-344.

A word on the IC50: it is the concentration that gives 50% inhibition. Regarding `CN(C)CCNC(=O)c1cccc2cc3ccccc3nc12` [DACA, N-[2-(dimethylamino)ethyl]acridine-4-carboxamide], the Resistance factors is reported as 1.9 with B1D, 3.9 in the series with B1A, 2.0 in the series with LA and 2.5 in the series with LD. Also, the IC50 was 200 to 1500 nM in series [1] (read-out: IC50 values) and 590 nM in series [1] (read-out: mean IC50). For the same compound, the “proportions of cells killed” value in series [1] (human, primary melanoma cultures) was more than 99%.
